Test results taken from patent publication US20260294849A1, “METHODS FOR TREATING CORNEAL INJURIES” (National Taiwan University, priority 2023, published 2026).
Entries after “also recorded” stand apart in the source; their conditions may differ. Counter-ions that a name gives are not always drawn.

What follows are molecules tested on corneal endothelial cells (assay: Corneal endothelial cell density after laser ablation (confocal cell counting)). Conditions: day 2 after laser ablation; intracameral injection; means±SEM; Control 728.5 ± 55.01, BSS 633 ± 33.7.
Type: in vivo, mice (nT/nG transgenic)
Text: (§1) nT/nG transgenic mice (Jax #023035; the Jackson Laboratory), having a Cre-reporter allele comprising a cell nuclear-targeted tandem dimerTomato (tdTomato; an orange fluorescent protein) and an enhanced green fluorescent protein (EGFP) (Prigge, Wiley et al., 2013; “Nuclear double-fluorescent reporter for in vivo and ex vivo analyses of biological transitions in mouse nuclei.”), were used in the present study for investigating the cell density and the healing process in corneal endothelium. The mice were characterized in that, prior to Cre recombination, widespread fluorescence expression of tdTomato (localized to the cell nucleus) was observed; whereas following Cre recombination, nuclear-localized green fluorescence was detected. All procedures on mice were approved by and performed in accordance with the Institutional Animal Care and Use Committees of National Taiwan University.
(§2) To eliminate the corneal endothelial cells, the multiphoton femtosecond laser was employed to induce cell ablation due to its ability to precisely control cell ablation in time and space with minimal injury made to adjacent tissues (Rompolas, Deschene et al., 2012; “Live imaging of stem cell and progeny behaviour in physiological hair-follicle regeneration.”). Once the corneal endothelial cells needed to be removed were identified, laser ablation was performed on the selected area (50 μm×50 μm) with a 880 nm laser wavelength and a 500 mW laser power in a single scan, with repeatedly adjusting the laser along the z-axis to achieve optimal results.
(§3) Following laser ablation, the aforementioned drugs were intracamerally injected to the cornea of the mice immediately using a customized needle attached to a 5 μl syringe (Hamilton). To avoid the motion, a cotton swab was used to prop the eyeball during the intracameral injection above on the peripheral region of the cornea. Each eye was slowly applied with a single dose of 0.5 μl different drugs.
The mice were anesthesia and sacrificed on day 2 after laser ablation with the indicated treatments administered (as shown in FIGS. 1-3), and their eyes were enucleated and fixed in 4% paraformaldehyde (PFA) at 4° C. overnight. After dissecting the cornea from the eyeball, the cornea was cut into a four-petal shape, placed on glass slides, mounted with a mounting medium (Vector), and immobilized by using a coverslip. All the fluorescent images were acquired by a SP8 confocal microscope (Leica), with steps set at 1 μm per z-section for a 20× objective. The cell nuclear ware manually segmented by using spot plugin in Imaris (Oxford instruments). For each sample, a circle area with a diameter of 300 μm was selected to count the cell numbers, so as to quantify the cell density in different drug treatments.
All the experimental data were performed by Prism and represented as means±SEM. The statistical significance of difference between the experimental groups was evaluated by Student's t test. P values<0.05 were considered statistically significant.
The protective effect of the present compound(s) on the corneal endothelial cells against injuries was evaluated by counting the cell number and/or the density of the corneal endothelial cells, instead of the keratocytes in corneal stroma or the other cell populations in trabecular meshwork.

Molecule	Corneal endothelial cell density
2,2,4,4-Tetrahydroxybenzophenone [THBP]	724 ± 12.8 cell number/the area of a circ
CCCCCC/C=C\CCCCCCCc1cccc(O)c1O [Bhilawanol A]	674.3 ± 8 cell number/the area of a circ
COc1ccc(C(=O)Nc2ccccc2CCC2CCCCN2C)cc1 (stereo not drawn) [Encainide, reference compound]	690 ± 8.8 cell number/the area of a circ
CCC(C(=O)OCCN1CCOC(c2ccccc2)C1C)c1ccccc1 (stereo not drawn) [Fenbutrazate, reference compound]	720.8 ± 14.9 cell number/the area of a circ
COc1ccc(CC(C)NCC(OC2O[C@H](C(=O)O)[C@@H](O)[C@H](O)[C@H]2O)c2ccc(O)c(NC=O)c2)cc1 (stereo partly drawn) [Formoterol BG, Formoterol Benzyl Glucuronide]	796 ± 24.9 cell number/the area of a circ
COc1ccc(C[C@@H](C)NC[C@H](O)c2ccc(O[C@@H]3O[C@H](C(=O)O)[C@@H](O)[C@H](O)[C@H]3O)c(NC=O)c2)cc1 [Formoterol PG, Formoterol Phenolic Glucuronide]	799.5 ± 23.56 cell number/the area of a circ
COc1ccc(C[C@@H](C)NC[C@H](O)c2ccc(OS(=O)(=O)O)c(NC=O)c2)cc1 [Formoterol Sulfate]	805.25 ± 22.3 cell number/the area of a circ
C[C@H](N)[C@H](O)c1ccc(O)c(O)c1 [Levonordefrin, reference compound]	710.5 ± 41.7 cell number/the area of a circ
CC1(C)C(C=C(Cl)Cl)C1C(=O)OCc1cccc(Oc2ccccc2)c1 (stereo not drawn) [Permethrin, reference compound]	721.8 ± 12.9 cell number/the area of a circ

Same assay, conditions: order: Formoterol Sulfate>Formoterol PG>Formoterol BG>Formoterol>THBP>Permethrin>Fenbutrazate>Levonordefrin>Encainide>Bhilawanol A

Molecule	Protection of the corneal endothelial cells against injuries
2,2,4,4-Tetrahydroxybenzophenone [THBP]	protected the corneal endothelial cells
CCCCCC/C=C\CCCCCCCc1cccc(O)c1O [Bhilawanol A]	protected the corneal endothelial cells
COc1ccc(C(=O)Nc2ccccc2CCC2CCCCN2C)cc1 (stereo not drawn) [Encainide, reference compound]	protected the corneal endothelial cells
CCC(C(=O)OCCN1CCOC(c2ccccc2)C1C)c1ccccc1 (stereo not drawn) [Fenbutrazate, reference compound]	protected the corneal endothelial cells
COc1ccc(CC(C)NCC(OC2O[C@H](C(=O)O)[C@@H](O)[C@H](O)[C@H]2O)c2ccc(O)c(NC=O)c2)cc1 (stereo partly drawn) [Formoterol BG, Formoterol Benzyl Glucuronide]	protected the corneal endothelial cells
COc1ccc(C[C@@H](C)NC[C@H](O)c2ccc(O[C@@H]3O[C@H](C(=O)O)[C@@H](O)[C@H](O)[C@H]3O)c(NC=O)c2)cc1 [Formoterol PG, Formoterol Phenolic Glucuronide]	protected the corneal endothelial cells
COc1ccc(C[C@@H](C)NC[C@H](O)c2ccc(OS(=O)(=O)O)c(NC=O)c2)cc1 [Formoterol Sulfate]	protected the corneal endothelial cells
C[C@H](N)[C@H](O)c1ccc(O)c(O)c1 [Levonordefrin, reference compound]	protected the corneal endothelial cells
CC1(C)C(C=C(Cl)Cl)C1C(=O)OCc1cccc(Oc2ccccc2)c1 (stereo not drawn) [Permethrin, reference compound]	protected the corneal endothelial cells

The molecules below were run on corneal endothelial cells (assay: Corneal wound healing by multiphoton microscopy (intravital imaging) after laser ablation). Conditions: intracameral injection, 6 μM; Day 1 after laser ablation; BSS group could not seal the wound defects.
Type: in vivo, mice (nT/nG transgenic)
Text: as §1
For live image acquisition, mice were anesthetized by intramuscular injection of 50-80 mg/kg Zoletil (Virbac). The corneal surface was anesthetized with 0.4% oxybuprocaine hydrochloride (Sigma) in saline. An eye holder was used to minimize artifacts during intravital imaging, as previously described (Wu, Wang et al., 2019; “Intravital multiphoton microscopic imaging platform for ocular surface imaging.”). Intravital imaging was performed using a laser wavelength of 880 nm for tdTomato excitation and a laser power of approximately 35 mW at the sample plane to optimize the image quality without photobleaching. A water-immersion 20×/NA1.0 objective lens (Olympus) was used to focus the laser light onto the eyes, after the laser light was reflected by the main dichroic mirror (Semrock). The tdTomato signals were spectrally separated using a bandpass filter of 585/40 nm (Semrock). To prevent dryness of the ocular surface during imaging, an eye gel (Vidisic Gel, Dr. Gerhard Mann Chem-Pharm) with a refractive index of 1.338 was used as an immersion medium on the cornea. Image stacks along the z-axis with a step size of 1 μm were acquired, and the dimensions of the images acquired in this study were 512×512 pixels.
as §2, §3
The efficacy of the tested drugs in promoting the corneal wound healing was investigated by a multiphoton microscopy analysis, in which changes in the wound site following drug injection was tracked.

Molecule	Corneal wound healing, Day 1
2,2,4,4-Tetrahydroxybenzophenone [THBP]	accelerated wound healing and sealed the defects on Day 1
C[C@H](N)[C@H](O)c1ccc(O)c(O)c1 [Levonordefrin, reference compound]	accelerated wound healing and sealed the defects on Day 1

Same assay, conditions: intracameral injection, 6 μM; Day 2 after laser ablation; BSS group: compromised integrity until Day 2

Molecule	Corneal wound healing, Day 2
COc1ccc(C(=O)Nc2ccccc2CCC2CCCCN2C)cc1 (stereo not drawn) [Encainide, reference compound]	promoted wound healing on Day 2
CCC(C(=O)OCCN1CCOC(c2ccccc2)C1C)c1ccccc1 (stereo not drawn) [Fenbutrazate, reference compound]	promoted wound healing on Day 2
COc1ccc(CC(C)NCC(OC2O[C@H](C(=O)O)[C@@H](O)[C@H](O)[C@H]2O)c2ccc(O)c(NC=O)c2)cc1 (stereo partly drawn) [Formoterol BG, Formoterol Benzyl Glucuronide]	promoted wound healing on Day 2
COc1ccc(C[C@@H](C)NC[C@H](O)c2ccc(O[C@@H]3O[C@H](C(=O)O)[C@@H](O)[C@H](O)[C@H]3O)c(NC=O)c2)cc1 [Formoterol PG, Formoterol Phenolic Glucuronide]	promoted wound healing on Day 2
COc1ccc(C[C@@H](C)NC[C@H](O)c2ccc(OS(=O)(=O)O)c(NC=O)c2)cc1 [Formoterol Sulfate]	promoted wound healing on Day 2
CC1(C)C(C=C(Cl)Cl)C1C(=O)OCc1cccc(Oc2ccccc2)c1 (stereo not drawn) [Permethrin, reference compound]	promoted wound healing on Day 2

Same assay, conditions: intracameral injection, 30 μM (238.875 ng/kg); Day 2 after laser ablation; BSS group: compromised integrity until Day 2

Molecule	Corneal wound healing, Day 2
CCCCCC/C=C\CCCCCCCc1cccc(O)c1O [Bhilawanol A]	promoted wound healing on Day 2

The molecules below were run on laser-injured cornea (assay: Corneal observation (opacity, edema, ulcer formation, ocular surface) via gross images after laser ablation and intracameral injection). Conditions: Day 2 after laser ablation and intracameral injection; BSS group: mild inflammation and irritation.
Type: in vivo, mice (nT/nG transgenic)
Text: as §1, §2, §3
The test compound(s) was/were intracamerally administered to the mice following laser ablation of the cornea, and then the corneal opacity was initially evaluated via gross images of the cornea.

Molecule	Ocular surface of the eye
2,2,4,4-Tetrahydroxybenzophenone [THBP]	maintained the ocular surface of the eye moist and transparent
CCCCCC/C=C\CCCCCCCc1cccc(O)c1O [Bhilawanol A]	maintained the ocular surface of the eye moist and transparent
COc1ccc(C(=O)Nc2ccccc2CCC2CCCCN2C)cc1 (stereo not drawn) [Encainide, reference compound]	maintained the ocular surface of the eye moist and transparent
CCC(C(=O)OCCN1CCOC(c2ccccc2)C1C)c1ccccc1 (stereo not drawn) [Fenbutrazate, reference compound]	maintained the ocular surface of the eye moist and transparent
COc1ccc(CC(C)NCC(OC2O[C@H](C(=O)O)[C@@H](O)[C@H](O)[C@H]2O)c2ccc(O)c(NC=O)c2)cc1 (stereo partly drawn) [Formoterol BG, Formoterol Benzyl Glucuronide]	maintained the ocular surface of the eye moist and transparent
COc1ccc(C[C@@H](C)NC[C@H](O)c2ccc(O[C@@H]3O[C@H](C(=O)O)[C@@H](O)[C@H](O)[C@H]3O)c(NC=O)c2)cc1 [Formoterol PG, Formoterol Phenolic Glucuronide]	maintained the ocular surface of the eye moist and transparent
COc1ccc(C[C@@H](C)NC[C@H](O)c2ccc(OS(=O)(=O)O)c(NC=O)c2)cc1 [Formoterol Sulfate]	maintained the ocular surface of the eye moist and transparent
C[C@H](N)[C@H](O)c1ccc(O)c(O)c1 [Levonordefrin, reference compound]	maintained the ocular surface of the eye moist and transparent
CC1(C)C(C=C(Cl)Cl)C1C(=O)OCc1cccc(Oc2ccccc2)c1 (stereo not drawn) [Permethrin, reference compound]	maintained the ocular surface of the eye moist and transparent

Same assay, conditions: laser-injured cornea after treatment; single intracameral injection 0.5 μl; Day 2; BSS group: mild edema

Molecule	Edema
2,2,4,4-Tetrahydroxybenzophenone [THBP]	No
CCCCCC/C=C\CCCCCCCc1cccc(O)c1O [Bhilawanol A]	No
COc1ccc(C(=O)Nc2ccccc2CCC2CCCCN2C)cc1 (stereo not drawn) [Encainide, reference compound]	No
CCC(C(=O)OCCN1CCOC(c2ccccc2)C1C)c1ccccc1 (stereo not drawn) [Fenbutrazate, reference compound]	No
COc1ccc(CC(C)NCC(OC2O[C@H](C(=O)O)[C@@H](O)[C@H](O)[C@H]2O)c2ccc(O)c(NC=O)c2)cc1 (stereo partly drawn) [Formoterol BG, Formoterol Benzyl Glucuronide]	No
COc1ccc(C[C@@H](C)NC[C@H](O)c2ccc(O[C@@H]3O[C@H](C(=O)O)[C@@H](O)[C@H](O)[C@H]3O)c(NC=O)c2)cc1 [Formoterol PG, Formoterol Phenolic Glucuronide]	No
COc1ccc(C[C@@H](C)NC[C@H](O)c2ccc(OS(=O)(=O)O)c(NC=O)c2)cc1 [Formoterol Sulfate]	No
C[C@H](N)[C@H](O)c1ccc(O)c(O)c1 [Levonordefrin, reference compound]	No
CC1(C)C(C=C(Cl)Cl)C1C(=O)OCc1cccc(Oc2ccccc2)c1 (stereo not drawn) [Permethrin, reference compound]	No

Same assay, conditions: laser-injured cornea after treatment; single intracameral injection 0.5 μl; Day 2; BSS group: slight opacity

Molecule	Opacity
2,2,4,4-Tetrahydroxybenzophenone [THBP]	No
CCCCCC/C=C\CCCCCCCc1cccc(O)c1O [Bhilawanol A]	No
COc1ccc(C(=O)Nc2ccccc2CCC2CCCCN2C)cc1 (stereo not drawn) [Encainide, reference compound]	No
CCC(C(=O)OCCN1CCOC(c2ccccc2)C1C)c1ccccc1 (stereo not drawn) [Fenbutrazate, reference compound]	slightly hazy spot formation; also recorded: Slight hazy
COc1ccc(CC(C)NCC(OC2O[C@H](C(=O)O)[C@@H](O)[C@H](O)[C@H]2O)c2ccc(O)c(NC=O)c2)cc1 (stereo partly drawn) [Formoterol BG, Formoterol Benzyl Glucuronide]	No
COc1ccc(C[C@@H](C)NC[C@H](O)c2ccc(O[C@@H]3O[C@H](C(=O)O)[C@@H](O)[C@H](O)[C@H]3O)c(NC=O)c2)cc1 [Formoterol PG, Formoterol Phenolic Glucuronide]	No
COc1ccc(C[C@@H](C)NC[C@H](O)c2ccc(OS(=O)(=O)O)c(NC=O)c2)cc1 [Formoterol Sulfate]	No
C[C@H](N)[C@H](O)c1ccc(O)c(O)c1 [Levonordefrin, reference compound]	No
CC1(C)C(C=C(Cl)Cl)C1C(=O)OCc1cccc(Oc2ccccc2)c1 (stereo not drawn) [Permethrin, reference compound]	No

Same assay, conditions: laser-injured cornea after treatment; single intracameral injection 0.5 μl; Day 2; BSS group: slight ulcer formation

Molecule	Ulcer formation
2,2,4,4-Tetrahydroxybenzophenone [THBP]	No
CCCCCC/C=C\CCCCCCCc1cccc(O)c1O [Bhilawanol A]	No
COc1ccc(C(=O)Nc2ccccc2CCC2CCCCN2C)cc1 (stereo not drawn) [Encainide, reference compound]	No
CCC(C(=O)OCCN1CCOC(c2ccccc2)C1C)c1ccccc1 (stereo not drawn) [Fenbutrazate, reference compound]	No
COc1ccc(CC(C)NCC(OC2O[C@H](C(=O)O)[C@@H](O)[C@H](O)[C@H]2O)c2ccc(O)c(NC=O)c2)cc1 (stereo partly drawn) [Formoterol BG, Formoterol Benzyl Glucuronide]	No
COc1ccc(C[C@@H](C)NC[C@H](O)c2ccc(O[C@@H]3O[C@H](C(=O)O)[C@@H](O)[C@H](O)[C@H]3O)c(NC=O)c2)cc1 [Formoterol PG, Formoterol Phenolic Glucuronide]	No
COc1ccc(C[C@@H](C)NC[C@H](O)c2ccc(OS(=O)(=O)O)c(NC=O)c2)cc1 [Formoterol Sulfate]	No
C[C@H](N)[C@H](O)c1ccc(O)c(O)c1 [Levonordefrin, reference compound]	No
CC1(C)C(C=C(Cl)Cl)C1C(=O)OCc1cccc(Oc2ccccc2)c1 (stereo not drawn) [Permethrin, reference compound]	No
